The record followed here is patent US11407728B2, “Derivatives of EPA endocannabinoid epoxides as anti-inflammatory, anti-cancerous, anti-angiogenc and antiplatelet aggregation compounds” (The Board of Trustees of the University of Illinois, priority 2017, dated 2022).

The target of data set [1] is T1, fatty acid amide hydrolase (FAAH) (Rattus norvegicus, UniProt P97612).
T1 construct: incubated with 100 μg forebrain membrane; from tissue; host or cells: rat forebrain membranes
T1 sequence (P97612 1-579): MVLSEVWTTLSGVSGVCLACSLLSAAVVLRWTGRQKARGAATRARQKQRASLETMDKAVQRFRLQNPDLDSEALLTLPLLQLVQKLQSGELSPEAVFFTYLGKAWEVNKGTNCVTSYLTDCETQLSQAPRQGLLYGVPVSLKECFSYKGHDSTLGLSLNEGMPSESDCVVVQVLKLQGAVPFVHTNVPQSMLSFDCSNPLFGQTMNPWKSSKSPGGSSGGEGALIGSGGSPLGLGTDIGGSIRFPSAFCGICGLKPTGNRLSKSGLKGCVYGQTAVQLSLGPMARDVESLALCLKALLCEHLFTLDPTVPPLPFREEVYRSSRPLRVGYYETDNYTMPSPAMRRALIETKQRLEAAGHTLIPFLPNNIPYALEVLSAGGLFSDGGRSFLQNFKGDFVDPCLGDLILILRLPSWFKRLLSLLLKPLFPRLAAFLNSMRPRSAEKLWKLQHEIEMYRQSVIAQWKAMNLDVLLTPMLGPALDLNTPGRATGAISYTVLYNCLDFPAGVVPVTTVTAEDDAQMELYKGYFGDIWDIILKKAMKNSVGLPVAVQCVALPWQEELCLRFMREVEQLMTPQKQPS
Description: Fatty acid amide hydrolase (FAAH) hydrolysis in rat forebrain membranes. Type of data set: in vitro ADME. As to conditions: 50 μM substrate, 100 μg rat forebrain membrane, 5, 20 and 40 minutes, 37° C. How it is done:
(§1) FIG. 4A, FIG. 4B, FIG. 4C and FIG. 4D show FAAH (FIG. 4B and FIG. 4D) and sEH (FIG. 4A and FIG. 4C) hydrolysis of 17,18-EEQ-EA and 8,9-EEQ-EA, respectively. To determine the rate of hydrolysis by sEH, increasing substrate (8,9-EEQ-EA) concentrations were incubated at 37° C. with sEH ([E]final=6 nM). For Vmax and Km values, plots were fitted to the Michaelis-Menten equation using Origin Pro. For FAAH hydrolysis, membranes from rat forebrain tissue were isolated for time-based hydrolysis. Incubations were performed with 100 μg of forebrain protein and 50 μM of substrate for 5, 20 and 40 minutes at 37° C. Both reactions were measured for product conversion using LC-MS/MS.
For fatty acid amide hydrolase (FAAH) kinetics (FIG. 4B and FIG. 4D), rat forebrain membranes were homogenized in buffer (50 mM Tris pH 7.4, 1 mM EDTA and 3 mM MgCl2) and membrane pellet was collected as previously described. 8,9-EEQ-EA or 13,14-EDP-EA (50 μM) was incubated with 100 μg forebrain membrane containing 50 mM Tris (pH 7.4), 1 mM EDTA, 3 mM MgCl2 in a 0.5 mL reaction. Linearity of the reactions was confirmed at 5, 20 and 40 minutes. Reactions were stopped with methanol containing 1 mM PMSF and centrifuged at 10,000 g for 10 min to collect supernatant via LC-MS/MS.

The next data set deals with T2, recombinant sEH (Homo sapiens, UniProt P34913).
T2 sequence (P34913 1-555): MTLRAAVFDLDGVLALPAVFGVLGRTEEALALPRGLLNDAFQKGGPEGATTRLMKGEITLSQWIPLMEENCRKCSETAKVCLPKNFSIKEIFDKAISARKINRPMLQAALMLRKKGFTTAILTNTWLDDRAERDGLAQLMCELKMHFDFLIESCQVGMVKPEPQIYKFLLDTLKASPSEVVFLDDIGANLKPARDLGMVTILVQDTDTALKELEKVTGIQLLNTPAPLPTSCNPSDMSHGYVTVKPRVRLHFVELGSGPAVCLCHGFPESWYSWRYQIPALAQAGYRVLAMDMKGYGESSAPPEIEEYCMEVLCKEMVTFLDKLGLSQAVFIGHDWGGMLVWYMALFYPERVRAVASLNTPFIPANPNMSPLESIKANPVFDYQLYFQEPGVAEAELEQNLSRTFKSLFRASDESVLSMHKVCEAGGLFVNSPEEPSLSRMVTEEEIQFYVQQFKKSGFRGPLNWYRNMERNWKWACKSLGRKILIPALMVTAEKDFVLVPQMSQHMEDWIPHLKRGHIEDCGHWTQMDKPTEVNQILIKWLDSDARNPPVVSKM
Nature of the data set: Soluble epoxide hydrolase (sEH) hydrolysis kinetics. It counts as in vitro ADME. The note with it: 8,9-EEQ-EA versus 17,18 EEQ-EA. As for the experimental part: as §1
For soluble epoxide hydrolase (sEH) kinetics, increasing concentrations of substrates (8,9-EEQ-EA (FIG. 4C) and 17,18-EEQ-EA (FIG. 4A)) were incubated with recombinant sEH (final [6 nM]) in a 0.1 mL reaction containing NaPO4 (0.1 M, pH 7.4), bovine serum albumin (0.1 mg/ml) at 37° C. The enzymatic reaction was stopped after 5 min with equal volume of methanol with AUDA (0.5 μM) and centrifuged at 10,000 g for 10 min. The supernatant was saved and quantitated using LC-MS/MS. Data was fit to kinetic curves and the Michaelis-Menten equation was used to calculate Vmax and Km.

The test system of data set [2] is mouse BV-2 microglial cells. Description: Anti-inflammatory assay in BV-2 microglial cells, IL-6 secretion (ELISA) after LPS stimulation. As to conditions: BV-2 cells pre-incubated 4 hours with varying concentrations, 25 ng/mL LPS, media collected at 24 hours. It counts as cell-based. How it is done:
FIG. 3A, FIG. 3B, FIG. 3C and FIG. 3D show the dose-dependent NO and Il-6 studies for 17,18-EEQ-EA and 8,9-EEQ-EA. BV-2 microglial cells were pre-incubated with varying concentrations of 17,18-EEQ-EA or 8,9-EEQ-EA for 4 hours followed by LPS (25 ng/mL) stimulation. Culture medium was collected after 24 hours and analyzed for NO (A, C) and IL-6 (B, D) production. Significant P values are indicated as *** (P≤0.001), ** (P≤0.01), and * (P≤0.05). Values are expressed as mean±SEM and +/− indicates LPS added or LPS not added. * represents P<0.05, ** represents P<0.01, *** represents P<0.001, **** represents P<0.0001 relative to LPS.
Experiments were performed with mouse BV-2 microglial cells. Cells were grown and maintained in Dulbecco's modified Eagle's medium supplemented with 10% fetal bovine serum, 1% streptomycin and penicillin at 37° C. in a 5% CO2 humidified air atmosphere. BV-2 cells were seeded in 24-well plates (200K cells/mL) and grown to 80-90% confluency. […] To determine nitrite and IL-6 production, media was collected at 24 hours and the production of nitric oxide (NO) was determined by using the Greiss method and IL-6 secretion was measured using ELISA (no. 583371; Cayman Chemical).

Data set [3] addresses T3, CNR1 (cannabinoid receptor 1) (Homo sapiens, UniProt P21554).
T3 construct: Tango fusion module; by own knowledge of the PRESTO-Tango design: V2 tail, TEV cleavage site, tTA; (C); own knowledge of the PRESTO-Tango design; (N); host or cells: HTLA cells
Description: Presto-Tango β-arrestin recruitment assay, CNR1. Type of data set: cell-based. The note with it: CNR1-transfected HTLA cells, luminescence, 1 μM AUDA; read-out: EC50 CNR1 activation. An excerpt: (§2) FIG. 5A and FIG. 5B show dose-response curves for cannabinoid receptor 1 (CNR1) and cannabinoid receptor 2 (CNR2), respectively. The dose response curves were generated by monitoring the relative luminescence of cannabinoid receptor 1 (CNR1) and cannabinoid receptor 2 (CNR2) of PRESTO-Tango gene-transfected HTLA cells for 17,18-EEQ-EA, EPEA, and CP 55940. Values shown are the mean±SEM of experiments performed multiple times (n=3-7) *P<0.05, **P<0.01, and ***P<0.001.
(§3) Binding of the parent compounds to putative receptors CNR1 and CNR2 (cannabinoid receptors 1 & 2) was measured by a Presto-Tango assay (FIG. 5A and FIG. 5B, respectively). These receptors are responsible for many downstream effects of marijuana derivatives as well as other endocannabinoids that have been previously reported in literature and this study explores if our compounds bind to these receptors. HTLA cells were received from the Roth Lab and CNR1 and CNR2 plasmids were purchased from Addgene. […] The following day, media was removed and 40 μL of diluted Bright-Glo solution (Promega, Madison. Wis.) was added to each well and incubated in the dark for 20 min at room temperature before luminescence recordings. Relative luminescence units (RLU) values were normalized to % receptor response, plotted as a function of compound concentration and analyzed using “DoseResp” in OriginPro.

Data set [4] addresses T4, CNR2 (cannabinoid receptor 2) (Homo sapiens, UniProt P34972).
T4 construct: Tango fusion module; by own knowledge of the PRESTO-Tango design: V2 tail, TEV cleavage site, tTA; (C); own knowledge of the PRESTO-Tango design; (N); host or cells: HTLA cells
Description: Presto-Tango β-arrestin recruitment assay, CNR2. It counts as cell-based. As to conditions: CNR2-transfected HTLA cells, luminescence, 1 μM AUDA; read-out: EC50 CNR2 activation.
Excerpt: as §2, §3

T4 sequence (P34972 whole entry, the tested form may be a part): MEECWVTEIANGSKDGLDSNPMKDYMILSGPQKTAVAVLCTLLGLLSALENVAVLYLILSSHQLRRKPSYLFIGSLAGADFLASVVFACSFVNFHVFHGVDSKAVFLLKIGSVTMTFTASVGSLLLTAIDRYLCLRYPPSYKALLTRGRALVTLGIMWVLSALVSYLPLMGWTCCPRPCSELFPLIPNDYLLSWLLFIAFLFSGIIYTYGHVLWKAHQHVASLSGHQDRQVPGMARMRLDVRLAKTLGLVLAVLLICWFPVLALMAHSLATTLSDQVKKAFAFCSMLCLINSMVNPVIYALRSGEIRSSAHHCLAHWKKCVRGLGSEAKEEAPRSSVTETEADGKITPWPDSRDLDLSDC
T3 sequence (P21554 whole entry, the tested form may be a part): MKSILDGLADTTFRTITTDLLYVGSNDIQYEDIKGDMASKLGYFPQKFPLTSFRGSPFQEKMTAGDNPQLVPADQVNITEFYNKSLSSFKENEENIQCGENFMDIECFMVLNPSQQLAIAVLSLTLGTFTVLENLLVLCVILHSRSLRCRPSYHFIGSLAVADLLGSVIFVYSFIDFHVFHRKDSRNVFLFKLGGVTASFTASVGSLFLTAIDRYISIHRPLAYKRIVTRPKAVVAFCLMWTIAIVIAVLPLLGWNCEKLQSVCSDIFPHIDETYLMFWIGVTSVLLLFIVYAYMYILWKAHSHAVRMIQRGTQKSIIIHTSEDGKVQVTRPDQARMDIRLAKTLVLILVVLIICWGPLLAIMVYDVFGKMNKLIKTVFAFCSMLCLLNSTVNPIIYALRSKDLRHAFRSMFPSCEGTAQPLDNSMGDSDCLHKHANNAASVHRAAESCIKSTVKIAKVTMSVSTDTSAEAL

`CC/C=C\C/C=C\C/C=C\CC1OC1C/C=C\CCCC(=O)NCCO` (stereo not drawn) [8,9-EEQ-EA]: the “rate of FAAH hydrolysis to the corresponding EEQ” value in data set [1] is “comparable to the rate of 17, 18-EEQ-EA to 17,18-EEQ”. Further, the “sEH turnover rate relative to 17,18 EEQ-EA (times)” value on recombinant sEH was found to be 4 times. Besides, the IL-6 secretion entry in data set [2] is reported as “reduced IL-6 in a dose-dependent manner”.
With `CCC1OC1C/C=C\C/C=C\C/C=C\C/C=C\CCCC(=O)NCCO` (stereo not drawn) [17,18-EEQ-EA], the IL-6 secretion entry in data set [2] is given as “reduced IL-6 in a dose-dependent manner”. The 50% effective concentration (EC50) (as a rule, the concentration giving half of the maximal effect) in data set [3] came out at 18.5 nM; in data set [4], 1.4 nM.
